For experiment [1], the target named is interaction between PD-1 and PD-L1 (Homo sapiens (Human), UniProt Q9NZQ7). Description: PD1-PDL1 HTRF binding activity test (Cisbio PD-1/PD-L1 binding assay kit). The settings on record: read-out: PD1-PDL1 HTRF Binding Activity IC50. A general note: In TR-FRET formats the signal depends on donor and acceptor labels being close together.
Experiment [2] deals with interaction between PD-1 and PD-L1 expressed on cell surfaces (Homo sapiens (Human), UniProt Q9NZQ7). Description: Jurkat reporter gene cellular assay (Jurkat/NF-κB-luc/PD1 cells cocultured with Raji-PD-L1 cells, OKT-3 stimulation). The class given is cell-based. The settings on record: NF-κB-luc reporter activation fold, 6 hrs; read-out: Cell Activity EC50. The essentials:
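EC50 comes from non-linear regression of activation fold (compound reading over DMSO reading) against concentration. Read-out was luciferase signal 6 h after OKT-3-stimulated coculture of PD-1/NF-κB-luc Jurkat cells with PD-L1-expressing Raji cells, 5*10^4 cells each per well.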

Broadly, the IC50 is the concentration at which inhibition is half-maximal. As usually defined, the EC50 is the concentration giving half of the maximal effect.

Chain of interaction between PD-1 and PD-L1 expressed on cell surfaces (Q9NZQ7 19-290): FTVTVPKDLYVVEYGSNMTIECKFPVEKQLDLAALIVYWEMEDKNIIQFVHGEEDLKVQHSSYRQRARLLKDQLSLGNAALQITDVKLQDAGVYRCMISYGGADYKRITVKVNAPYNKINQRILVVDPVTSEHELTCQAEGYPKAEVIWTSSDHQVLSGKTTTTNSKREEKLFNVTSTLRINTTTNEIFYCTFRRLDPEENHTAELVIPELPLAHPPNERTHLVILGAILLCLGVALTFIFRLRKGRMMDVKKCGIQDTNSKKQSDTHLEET
Chain of interaction between PD-1 and PD-L1 (Q9NZQ7 19-238): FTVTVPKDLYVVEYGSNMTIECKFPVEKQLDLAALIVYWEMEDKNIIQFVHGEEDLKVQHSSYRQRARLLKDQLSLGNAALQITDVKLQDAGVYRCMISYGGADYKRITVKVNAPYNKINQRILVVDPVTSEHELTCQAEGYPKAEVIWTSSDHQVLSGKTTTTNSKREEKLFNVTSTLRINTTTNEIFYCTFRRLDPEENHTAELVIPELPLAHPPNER

`COc1cc(C(=O)Nc2cccc(-c3cccc(NC(=O)c4cc(OC)c(CNCCS(C)(=N)=O)cn4)c3C)c2C)ncc1CNCCS(C)(=N)=O` (stereo not drawn) [Example 88, N,N'-(2,2′-dimethyl-[1,1′-biphenyl]-3,3′-diyl)bis(4-methoxy-5-(((2-(S-methylsulfonimidoyl)ethyl)amino)methyl)picolinamide)]: the IC50 in experiment [1] is 0.41 nM. In experiment [2], the EC50 was 182 nM.
`COc1cc(C(=O)Nc2cccc(-c3cccc(NC(=O)c4cc(OC)c(CNCCN=S(C)(C)=O)cn4)c3C)c2C)ncc1CNCCN=S(C)(C)=O` [Example 89, N,N'-(2,2′-dimethyl-[1,1′-biphenyl]-3,3′-diyl)bis(5-(((2-((dimethyl(oxo)λ^6-sulfaneylidene)amino)ethyl)amino)methyl)-4-methoxypicolinamide)]: in experiment [1], the half-inhibitory concentration (IC50) came to 0.87 nM. Also, the EC50 in experiment [2] stood at 427 nM.
With `COc1cc(C(=O)Nc2cccc(-c3cccc(NC(=O)c4cc(OC)c(CNCCN=S5(=O)CCCC5)cn4)c3C)c2C)ncc1CNCCN=S1(=O)CCCC1` [Example 90, N,N'-(2,2′-dimethyl-[1,1′-biphenyl]-3,3′-diyl)bis(4-methoxy-5-(((2-((1-oxidotetrahydro-1λ^6-thiophen-1-ylidene)amino)ethyl)amino)methyl)picolinamide)], the IC50 in experiment [1] turned out to be 0.36 nM. Moreover, in experiment [2], the EC50 stood at 131 nM.
As for `Cc1c(NC(=O)c2cc(C3CC3)c(CNCCO)cn2)cccc1-c1cccc(NC(=O)c2cc(C3CC3)c(CNCCO)cn2)c1C` [Example 91, N,N'-(2,2′-dimethyl-[1,1′-biphenyl]-3,3′-diyl)bis(4-cyclopropyl-5-(((2-hydroxyethyl)amino)methyl)picolinamide)], in experiment [1], the IC50 is 0.16 nM. Also, the EC50 in experiment [2] turned out to be 39 nM.
Take `Cc1c(NC(=O)c2cc(C3CC3)c(CNC(CO)CO)cn2)cccc1-c1cccc(NC(=O)c2cc(C3CC3)c(CNC(CO)CO)cn2)c1C` [Example 92, N,N′-(2,2′-dimethyl-[1,1′-biphenyl]-3,3′-diyl)bis(4-cyclopropyl-5-(((1,3-dihydroxypropan-2-yl)amino)methyl)picolinamide)]: the IC50 in experiment [1] was determined as 0.87 nM. In addition, the EC50 in experiment [2] was 54.7 nM.
In the same order, the values of `CC(=O)NCCNCc1cnc(C(=O)Nc2cccc(-c3cccc(NC(=O)c4cc(C5CC5)c(CNCCNC(C)=O)cn4)c3C)c2C)cc1C1CC1` [Example 93, N,N'-(2,2′-dimethyl-[1,1′-biphenyl]-3,3′-diyl)bis(5-(((2-acetamidoethyl)amino)methyl)-4-cyclopropylpicolinamide)] are 1.49 nM and 104 nM.
In the same order, the values of `Cc1c(NC(=O)c2cc(C3CC3)c(CNCC3(O)CC3)cn2)cccc1-c1cccc(NC(=O)c2cc(C3CC3)c(CNCC3(O)CC3)cn2)c1C` [Example 94, N,N'-(2,2′-dimethyl-[1,1′-biphenyl]-3,3′-diyl)bis(4-cyclopropyl-5-((((1-hydroxycyclopropyl)methyl)amino)methyl)picolinamide)] are 4.75 nM and 566 nM.
Consider `Cc1c(NC(=O)c2cc(C3CC3)c(CN[C@H](C)CO)cn2)cccc1-c1cccc(NC(=O)c2cc(C3CC3)c(CN[C@H](C)CO)cn2)c1C` [Example 95, N,N'-(2,2′-dimethyl-[1,1′-biphenyl]-3,3′-diyl)bis(4-cyclopropyl-5-((((R)-1-hydroxypropan-2-yl)amino)methyl)picolinamide)], for which the IC50 in experiment [1] was determined as 2.02 nM. In addition, the concentration for a half-maximal effect (EC50) in experiment [2] is 125 nM.
Taken in the same sequence, the figures for `Cc1c(NC(=O)c2cc(C3CC3)c(CN[C@@H](C)CO)cn2)cccc1-c1cccc(NC(=O)c2cc(C3CC3)c(CN[C@@H](C)CO)cn2)c1C` [Example 96, N,N'-(2,2′-dimethyl-[1,1′-biphenyl]-3,3′-diyl)bis(4-cyclopropyl-5-((((S)-1-hydroxypropan-2-yl)amino)methyl)picolinamide)] were 1.44 nM and 87 nM.
In the same order, the values of `Cc1c(NC(=O)c2cc(C3CC3)c(CNC3CCC[C@@H]3O)cn2)cccc1-c1cccc(NC(=O)c2cc(C3CC3)c(CN[C@H]3CCC[C@@H]3O)cn2)c1C` (stereo partly drawn) [Example 97] are 3.38 nM and 221 nM.
Consider `Cc1c(NC(=O)c2cc(C3CC3)c(CN3CC(O)C3)cn2)cccc1-c1cccc(NC(=O)c2cc(C3CC3)c(CN3CC(O)C3)cn2)c1C` [Example 98, N,N′-(2,2′-dimethyl-[1,1′-biphenyl]-3,3′-diyl)bis(4-cyclopropyl-5-((3-hydroxyazetidin-1-yl)methyl)picolinamide)], for which the IC50 in experiment [1] was 3.78 nM. In addition, the EC50 in experiment [2] stood at 241 nM.
Consider `Cc1c(NC(=O)c2cc(C3CC3)c(CN3CC(C)(O)C3)cn2)cccc1-c1cccc(NC(=O)c2cc(C3CC3)c(CN3CC(C)(O)C3)cn2)c1C` [Example 99, N,N′-(2,2′-dimethyl-[1,1′-biphenyl]-3,3′-diyl)bis(4-cyclopropyl-5-((3-hydroxy-3-methylazetidin-1-yl)methyl)picolinamide)], for which the IC50 in experiment [1] came out at 1.43 nM. Also, in experiment [2], the EC50 was 260 nM.
Taken in the same sequence, the figures for `Cc1c(NC(=O)c2cc(C3CC3)c(CN3CC[C@@H](O)C3)cn2)cccc1-c1cccc(NC(=O)c2cc(C3CC3)c(CN3CC[C@@H](O)C3)cn2)c1C` [Example 100] were 1.51 nM and 122 nM.
In the same order, the values of `Cc1c(NC(=O)c2cc(C3CC3)c(CN3CC[C@H](O)C3)cn2)cccc1-c1cccc(NC(=O)c2cc(C3CC3)c(CN3CC[C@H](O)C3)cn2)c1C` [Example 101, N,N′-(2,2′-dimethyl-[1,1′-biphenyl]-3,3′-diyl)bis(4-cyclopropyl-5-(((S)-3-hydroxypyrrolidin-1-yl)methyl)picolinamide)] are 1.09 nM and 267 nM.
For the compound `Cc1c(NC(=O)c2cc(C3CC3)c(CN3CCC(O)CC3)cn2)cccc1-c1cccc(NC(=O)c2cc(C3CC3)c(CN3CCC(O)CC3)cn2)c1C` [Example 102, N,N′-(2,2′-dimethyl-[1,1′-biphenyl]-3,3′-diyl)bis(4-cyclopropyl-5-((4-hydroxypiperidin-1-yl)methyl)picolinamide)], the IC50 in experiment [1] is 3.61 nM. In addition, in experiment [2], the EC50 stood at 194 nM.
With `Cc1c(NC(=O)c2cc(C3CC3)c(CNC3CC(O)C3)cn2)cccc1-c1cccc(NC(=O)c2cc(C3CC3)c(CN[C@H]3C[C@@H](O)C3)cn2)c1C` (stereo partly drawn) [Example 103, N,N′-(2,2′-dimethyl-[1,1′-biphenyl]-3,3′-diyl)bis(4-cyclopropyl-5-((((1s,3s)-3-hydroxycyclobutyl)amino)methyl)picolinamide)], the IC50 in experiment [1] amounted to 4.11 nM. In experiment [2], the 50% effective concentration (EC50) came to 206 nM.
In the same order, the values of `Cc1c(NC(=O)c2cc(C3CC3)c(CN[C@H](CO)C(=O)O)cn2)cccc1-c1cccc(NC(=O)c2cc(C3CC3)c(CN[C@H](CO)C(=O)O)cn2)c1C` [Example 105] are 0.27 nM and 14.1 nM.
`CCOC(=O)[C@@H](CO)NCc1cnc(C(=O)Nc2cccc(-c3cccc(NC(=O)c4cc(C5CC5)c(CN[C@H](CO)C(=O)OCC)cn4)c3C)c2C)cc1C1CC1` [Example 106, diethyl 2,2′-((((((2,2′-dimethyl-[1,1′-biphenyl]-3,3′-diyl)bis(azanediyl))bis (carbonyl))bis(4-cyclopropylpyridine-6,3-diyl))bis(methylene))bis(azanediyl)) (2R,2′R)-bis(3-hydroxypropanoate)]: in experiment [1], the IC50 was found to be 22.5 nM. In addition, the EC50 in experiment [2] came to 1260 nM.

For the origin of these results see patent US11459339B2, “Biaryl derivative, preparation method thereof and pharmaceutical application thereof” (Abbisko Therapeutics Co., Ltd., priority 2018, dated 2022).
